This experiment deals with T1, Acetylcholinesterase (Rattus norvegicus, UniProt P37136).
T1 construct: Male Wistar rats are decapitated, brains rapidly removed, corpora striata dissected free, weighed and homogenized; from tissue; host or cells: rat brain corpora striata homogenate (male Wistar rats)
T1 sequence (P37136 32-614): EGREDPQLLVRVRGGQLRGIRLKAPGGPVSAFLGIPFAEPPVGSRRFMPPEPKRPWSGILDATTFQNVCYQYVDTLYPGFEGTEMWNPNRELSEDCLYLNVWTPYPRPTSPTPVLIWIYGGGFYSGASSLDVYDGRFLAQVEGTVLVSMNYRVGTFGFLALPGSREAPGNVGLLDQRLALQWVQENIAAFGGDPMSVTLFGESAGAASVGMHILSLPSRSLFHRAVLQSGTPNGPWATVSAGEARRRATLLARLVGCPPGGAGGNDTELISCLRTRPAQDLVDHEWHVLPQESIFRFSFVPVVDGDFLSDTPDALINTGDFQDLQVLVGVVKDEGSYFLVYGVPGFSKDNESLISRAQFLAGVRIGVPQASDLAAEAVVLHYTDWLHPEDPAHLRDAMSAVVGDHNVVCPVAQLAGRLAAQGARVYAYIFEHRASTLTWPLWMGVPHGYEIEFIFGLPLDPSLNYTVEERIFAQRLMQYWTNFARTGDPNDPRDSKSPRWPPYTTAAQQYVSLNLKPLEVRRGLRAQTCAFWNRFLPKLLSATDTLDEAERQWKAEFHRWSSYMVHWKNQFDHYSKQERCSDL
Nature of the experiment: inhibition of acetyl cholinesterase activity (acetylthiocholine/DTNB spectrophotometric assay, rat striatal homogenate). In kind it is biochemical, Male Wistar rats. To be noted: rat corpora striata homogenate; preincubated for 10 minutes at 37° C.; substrate acetylthiocholine 5 mM final; DTNB 0.5 mM; 412 nm; log-probit analysis. The method, then:
The [1-indanon-2-yl]methylpiperidines of the present invention are useful as agents for the relief of memory dysfunction, particularly dysfunctions associated with decreased cholinergic activity such as those found in Alzheimer's disease.
4. A 2 mM stock solution of the test drug is made up in a suitable solvent and q.sed to volume with 0.5 mM DTNB (reagent 3). Drugs are serially diluted (1:10) such that the final concentration (in cuvette) is 10^−4M and screened for activity. If active, IC50 values are determined from the inhibitory activity of subsequent concentrations.
Male Wistar rats are decapitated, brains rapidly removed, corpora striata dissected free, weighed and homogenized in 19 volumes (approximately 7 mg protein/ml) of 0.05 M sodium phosphate, pH 7.2 using a Potter-Elvehjem homogenizer. A 25 μl aliquot of this suspension is added to 1 ml of the vehicle or various concentrations of the test drug and preincubated for 10 minutes at 37° C.
Enzyme activity is measured with the Beckman DU-50 spectrophotometer. This method can be used for IC50 determinations and for measuring kinetic constants.
Reagents are added to the blank and sample cuvettes as follows:
Blank values are determined for each run to control for non-enzymatic hydrolysis of substrate and these values are automatically subtracted by the kindata program available on kinetics soft-pac module. This program also calculates the rate of absorbance change for each cuvette.
Substrate concentration is 10 mM diluted 1:2 in assay yielding final concentration of 5 mM. DTNB concentration is 0.5 mM final concentration
% Inhibition=slope control-slope drug/slope control×100
IC50 values are calculated from log-probit analysis.
In the case of `CCCCNC(=O)Oc1ccc2c(c1)C(=O)C(CC1CCN(Cc3ccccc3)CC1)C2` (stereo not shown) [1-Benzyl-4-[[6-(butylaminocarbonyloxy)-1-indanon]-2-yl]methylpiperidine], the midpoint of inhibition, the IC50, lay at 1430 nM. In the case of `O=C(NCc1ccccc1)Oc1ccc2c(c1)C(=O)C(CC1CCN(Cc3cccc(F)c3)CC1)C2` (stereo not shown) [1-(3-Fluorobenzyl)-4-[[6-(benzylaminocarbonyloxy)-1-indanon]-2-yl]-methylpiperidine], the IC50 – broadly, the concentration that inhibits the measured activity by half – was 3170 nM. Then `CNC(=O)Oc1ccc2c(c1)C(=O)C(CC1CCN(Cc3ccccc3)CC1)C2` (stereo not shown) [1-Benzyl-4-[[6-methylaminocarbonyloxy)-1-indanon]-2-yl]methylpiperidine], with 1340 nM; and `CNC(=O)Oc1ccc2c(c1)C(=O)C(CC1CCN(Cc3cccc(F)c3)CC1)C2` (stereo not shown) [1-(3-Fluorobenzyl)-4-[[6-(methylaminocarbonyloxy)-1-indanon]-2-yl]methylpiperidine], with 1510 nM.

The record behind these values is US6413986B1, “[1-indanon-2-yl]methylpiperidines” (Aventis Pharmaceuticals Inc., priority 1991, dated 2002).
